From publication PMC9500498 (Circulation research, 2021)
Peptide text beside a SMILES is read from it.

Experiments:
CaM [1] = target: T1, CaM (Homo sapiens, UniProt P0DP23); assay: SPR of immobilized biotin-ahx-AKAP18δ; assay type: binding
CaMKIIδ-T287D [2] = target: T2, CaMKIIδ-T287D (Homo sapiens, UniProt Q13557, T287D); assay: In vitro CaMKII kinase assay; assay type: biochemical; details: 32P incorporation into syntide; compared among AKAP18δ-N sequences
CaM [3] = target: T1, CaM; assay: CaM-agarose precipitation in the presence of Ca2+, immunoblot; assay type: binding; details: Suppl. Fig. 4b–c
Ca^2+/CaM = assay: ELISA-based binding of biotinylated peptide to CaM-coated wells; details: biotinylated peptide vs scrambled control, n=6
CaMKIIδ-T287D [4] = target: T2, CaMKIIδ-T287D; details: compared with AKAP18δ-N (55–98), Suppl. Fig. 2j–k
CaMKIIδ-T287D [5] = target: T2, CaMKIIδ-T287D; assay: CaMKIIδ-T287D-catalyzed phosphorylation of biotin-ahx-PLN; assay type: biochemical; details: biotin-ahx-PLN (1–30) as substrate, vs scrambled control peptide, n=7
pThr17-PLN = assay type: cell-based; details: neonatal rat cardiomyocytes; Suppl. Fig. 6a–b
CaMKIIδ-T287A [6] = assay: In vitro CaMKII kinase assay; assay type: biochemical; details: CaM omitted; 32P incorporation into syntide, n=6
CaMKIIδ-T287A [7] = assay: CaMKIIδ-catalyzed phosphorylation of Thr17-PLN at 0.5 μM Ca2+, immunoblot; assay type: biochemical; details: 0.5 μM free Ca2+
CaMKIIδ-T287A [8] = assay: Immunoprecipitation of CaM with CaMKIIδ-T287A; assay type: binding; details: immunoprecipitation in the presence of CaM, n=15
CaMKIIδ = assay: Overlay of 20-mer overlapping CaMKIIδ peptide arrays with biotinylated peptide; assay type: binding; details: 20-mer overlapping CaMKIIδ peptides on membranes

T2 sequence (Q13557 whole entry T287D): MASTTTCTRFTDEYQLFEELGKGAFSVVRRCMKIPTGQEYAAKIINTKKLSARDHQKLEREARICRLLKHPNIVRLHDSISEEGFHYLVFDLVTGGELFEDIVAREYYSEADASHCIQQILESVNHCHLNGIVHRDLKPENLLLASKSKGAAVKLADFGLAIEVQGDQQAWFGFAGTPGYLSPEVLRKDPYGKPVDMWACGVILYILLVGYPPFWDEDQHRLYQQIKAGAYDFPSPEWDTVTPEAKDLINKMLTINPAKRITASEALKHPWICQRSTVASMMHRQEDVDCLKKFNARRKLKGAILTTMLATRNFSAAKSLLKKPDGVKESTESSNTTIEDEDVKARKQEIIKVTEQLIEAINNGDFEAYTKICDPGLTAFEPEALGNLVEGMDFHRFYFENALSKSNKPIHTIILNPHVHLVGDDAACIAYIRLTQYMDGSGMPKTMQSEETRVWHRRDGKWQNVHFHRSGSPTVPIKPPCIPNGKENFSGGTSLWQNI

CC[C@H](C)[C@H](NC(=O)[C@@H]1CCCN1C(=O)[C@@H](NC(=O)[C@H](CO)NC(=O)[C@H](CC(C)C)NC(=O)[C@H](Cc1ccccc1)NC(=O)[C@H](Cc1ccc(O)cc1)NC(=O)[C@H](CC(N)=O)NC(=O)[C@@H]1CCCN1C(=O)[C@H](CCC(N)=O)NC(=O)[C@H](Cc1ccc(O)cc1)NC(=O)[C@H](CC(=O)O)NC(=O)[C@H](CCCCN)NC(=O)[C@H](CCCCN)NC(=O)[C@H](C)NC(=O)[C@H](CCCCN)NC(=O)[C@H](CCCCN)NC(=O)[C@H](CCCNC(=N)N)NC(=O)[C@H](CCCCN)NC(=O)[C@@H](N)CCCCN)[C@@H](C)CC)C(=O)O [AKAP18δ-N (79–98)] (H-KKRKKAKKDYQPNYFLSIPI-OH; N-terminus and C-terminus assumed)
kon (CaM [1]; read-out: association rate constant (ka)): 130 M⁻¹ s⁻¹
koff (CaM [1]; read-out: dissociation rate constant (kd)): 0.00053 s⁻¹
effect on CaMKIIδ-T287D activity (in words) (CaMKIIδ-T287D [2]): inhibitory
precipitation with CaM-agarose (CaM [3]): precipitated with CaM-agarose
CaM binding, ELISA-based assay (Ca^2+/CaM): confirmed
SPR binding to CaMKIIδ-T287D (in words) (CaMKIIδ-T287D [4]): bound strongly

CC[C@H](C)[C@H](NC(=O)[C@@H]1CCCN1C(=O)[C@@H](NC(=O)[C@H](CO)NC(=O)[C@H](CC(C)C)NC(=O)[C@H](Cc1ccccc1)NC(=O)[C@H](Cc1ccc(O)cc1)NC(=O)[C@H](CC(N)=O)NC(=O)[C@@H]1CCCN1C(=O)[C@H](CCC(N)=O)NC(=O)[C@H](Cc1ccc(O)cc1)NC(=O)[C@H](CC(=O)O)NC(=O)[C@H](CCCCN)NC(=O)[C@H](CCCCN)NC(=O)[C@H](C)NC(=O)[C@H](CCCCN)NC(=O)[C@H](CCCCN)NC(=O)[C@H](CCCNC(=N)N)NC(=O)[C@H](CCCCN)NC(=O)[C@H](CCCCN)NC(=O)[C@@H](NC(=O)[C@H](Cc1c[nH]cn1)NC(=O)[C@H](CC(=O)O)NC(=O)[C@H](CC(N)=O)NC(=O)[C@H](CCCNC(=N)N)NC(=O)[C@H](CC(=O)O)NC(=O)CNC(=O)[C@H](CCCNC(=N)N)NC(=O)[C@H](CC(N)=O)NC(=O)[C@H](CCC(=O)O)NC(=O)[C@H](CCCCN)NC(=O)[C@H](CO)NC(=O)[C@H](CCCNC(=N)N)NC(=O)[C@H](CCCCN)NC(=O)[C@@H]1CCCN1C(=O)[C@H](CC(N)=O)NC(=O)CNC(=O)[C@H](CCC(N)=O)NC(=O)[C@@H]1CCCN1C(=O)[C@@H](NC(=O)[C@H](CC(N)=O)NC(=O)CNC(=O)[C@H](CCC(N)=O)NC(=O)[C@@H]1CCCN1)C(C)C)C(C)C)[C@@H](C)CC)C(=O)O [AKAP18δ-N (55–98)]
CaMKIIδ-T287D-catalyzed phosphorylation of Thr17 in PLN (CaMKIIδ-T287D [5]): reduced

CC[C@H](C)[C@H](NC(=O)[C@H](CCC(N)=O)NC(=O)[C@H](Cc1ccc(O)cc1)NC(=O)[C@H](CC(C)C)NC(=O)[C@@H](NC(=O)[C@H](CCC(=O)O)NC(=O)[C@H](CCC(=O)O)NC(=O)CNC(=O)[C@H](Cc1ccccc1)NC(=O)[C@H](CCCNC(=N)N)NC(=O)[C@H](Cc1c[nH]cn1)NC(=O)[C@H](CC(=O)O)NC(=O)[C@@H](NC(=O)[C@H](Cc1ccccc1)NC(=O)[C@H](CCC(N)=O)NC(=O)[C@H](CCC(=O)O)NC(=O)[C@H](Cc1ccc(O)cc1)NC(=O)[C@H](CC(C)C)NC(=O)CNC(=O)[C@@H]1CCCN1C(=O)[C@H](CCC(=O)O)NC(=O)[C@@H](NC(=O)[C@H](CCCCN)NC(=O)[C@H](CCCNC(=N)N)NC(=O)[C@@H](NC(=O)CNC(=O)[C@H](CCCCN)NC(=O)[C@@H](N)CCCCN)C(C)C)[C@@H](C)CC)[C@@H](C)CC)[C@@H](C)CC)C(=O)N[C@@H](CC(=O)O)C(=O)O [AKAP18δ-C]
pThr17-PLN level (pThr17-PLN): augmented
substrate phosphorylation by CaMKIIδ-T287A (CaMKIIδ-T287A [6]): increased substrate phosphorylation
Thr17-PLN phosphorylation by CaMKIIδ-T287A (CaMKIIδ-T287A [7]): further increased Thr17-PLN phosphorylation in the presence of either AKAP18δ-C (tendency)
trapping of CaM to CaMKIIδ-T287A (CaMKIIδ-T287A [8]): induced trapping of CaM
CaMKIIδ binding on peptide arrays (CaMKIIδ): too weak or dynamic to be detected
cytotoxicity (and changes at basal level) (cardiomyocytes): No cytotoxicity
